Target: Adenosylhomocysteinase (Bos taurus)
Assay: Time course of inactivation of bovine liver S-adenosyl-homocysteine hydrolase

Row | Ki | Structure (SMILES)
1 | 41 nM | Nc1ncnc2c1ncn2[C@@H]1C=C[C@@H](O)[C@H]1O
2 | 35 nM | Nc1nccc2c1ncn2C1C=C[C@@H](O)[C@H]1O (some centres not stated)

Reference: BindingDB's records for doi:10.1021/jm00398a002 (University of Kansas, 1988)
